These results are taken from patent EP2519243B1, “COMPOSITIONS AND METHODS FOR TREATING HEPATITIS B VIRUS INFECTION” (priority 2009, dated 2011).

Like-named read-outs stand apart in the source and are kept apart here. A value given as a limit tells only on which side of the number the result lay.

The subject of series [1] is HBV. The conditions noted are these: cited from earlier work; for cumulative rate of resistance: in 5 years.
For series [2] the following is noted: cited from earlier work.
Series [3] deals with HBV. The series is described as follows: Emax modeling of predicted day 29 HBV DNA reduction versus lamivudine dose. The conditions noted are these: Emax model estimate (standard error); Emax fixed to 4; day 29 predicted data. The arrangement: species or system human. An excerpt:
The predicted HBV DNA reduction data on day 29 were used for Emax modeling analyses for the purpose of defining optimal doses of lamivudine.
An Emax model in the form of E = Emax *ED50^h /(D^h+ED50^h) [formula] where E and Emax are the viral response with dose D and maximum viral response respectively; ED50 is the dose resulting in 50% of viral response; h is the Hill parameter. The maximum reduction of HBV NDA at 4 weeks achievable by a nucleoside/nucleotide antiviral is approximately 4 log10. (Buti et al. J. Hepatol. 39: S139-S142, 2003.) Therefore, in the Emax modeling herein, Emax was fixed to 4.
Using these estimates, viral responses at untested doses were predicted and results are illustrated in FIG. 3 and presented in Table 5.

The subject of series [4] is HBV. The conditions noted are these: day 29, 100 mg/day dose; no additional benefits with 300 mg or 600 mg; cited from earlier work.
The subject of series [5] is HBV. The series is described as follows: Viral dynamic analyses of serum HBV DNA under lamivudine therapy (model fit and simulation). The conditions noted are these: estimate (standard error). More on the design: species or system human. The source says: The HBV DNA data used in the unique assessments disclosed herein of HBV viral dynamics under lamivudine therapy were obtained from the previously published lamivudine dose-response curves (FIG. 1). […] Therefore, for the viral dynamic analyses, only data up to day 15 were used.
The digitalized data were converted to percent change from baseline as (Vt-V0)/V0 and further presented as Vt/V0, where V0 and Vt are the HBV DNA data at baseline and at time t after treatment initiation, respectively. The viral dynamic model as illustrated below was fitted to the Vt/V0 vs. time data: Vt /V0 = [(ε*u-a)/(u-a)]*exp(-u*t) + [(1-ε)*u/(u-a)]*exp(-a*t) [formula] where u is the clearance rate constant of free virions; a is the clearance rate constant of infected cells; ε is the inhibition efficacy.
Table 3. Exemplary viral dynamic parameter estimates (standard error) of lamivudine
These analyses are illustrated in FIG. 2.
Table 4. Examples of model predicted HBV DNA reduction from baseline on long10 scale (% change)

Turning to `CC(C)(C)C(=O)OCOP(=O)(COCCn1cnc2c(N)ncnc21)OCOC(=O)C(C)(C)C` [adefovir dipivoxil, 9-[2-[[bis[(pivaloyloxy)methoxy]-phosphinyl]-methoxy]ethyl]adenine], the “cumulative rate of resistance” value in the series on HBV [1] (HBeAg negative patients) is recorded as 29%; in the series on HBV [1] (HBeAg positive patients), “about 20%”. The 5-year resistance rate in the series with HBV [1] (monotherapy) was 20-30%. In addition, in series [2] (10 mg per day, 4-5 years, patients with compensated liver disease), the “cumulative rate of nephrotoxicity” value is 3%. Further, in series [2] (decompensated liver disease and liver transplantation, treatment periods of 39-99 weeks), the “adefovir-associated nephrotoxicity (patients)” value was “up to 47%”.

In the case of `Nc1ccn([C@@H]2CS[C@H](CO)O2)c(=O)n1` (relative stereo) [lamivudine, (2R,cis)-4-amino-1-(2-hydroxymethyl-1,3-oxathiolan-5-yl)-(1H)-pyrimidin-2-one], the “ED50 (dose resulting in 50% of viral response)” value in the series with HBV [3] was 101.5 (29.04) mg. Moreover, the “maximal observed viral suppression (median, from baseline)” value in the series on HBV [4] is listed as at least 98%. For the same compound, the “e (inhibition efficacy)” value with HBV [5] (lamivudine 5 mg/day) is 0.6193 (0.0369); with HBV [5] (lamivudine 20 mg/day), 0.8186 (0.0374); with HBV [5] (lamivudine 100 mg/day), 0.8173 (0.0254); in the series with HBV [5] (lamivudine 300 mg/day) it was 0.8463 (0.0087); with HBV [5] (lamivudine 600 mg/day), 0.8673 (0.0248).
